Results on two compounds are retold here after patent publication US12005050B2, “Methods for preventing or treating H. pylori infection” (TENNOR THERAPEUTICS (SUZHOU) LIMITED, priority 2022, dated 2024).

One data set concerns Helicobacter pylori. Particulars: In China; cited from earlier work.
For data set [1] the following is noted: human, in vivo. As to the method: The 40 patients were randomly allocated to four groups at a ratio of 1:1:1:1. […] The detection linear range was as below: • Compound I: Lower Limit Of Quantitation (LLOQ): 1.00 ng/mL; Upper Limit Of Quantitation (ULOQ): 1,000 ng/mL • Rabeprazole sodium: LLOQ: 2.00 ng/mL; […] […] Pharmacokinetics Evaluation Plasma drug concentrations of various groups at different time points were determined, including: arithmetic mean, standard deviation, minimum, median, maximum, geometric mean, coefficient of variation, and coefficient of geometric variation. The pharmacokinetic parameters calculated from the first and last administration were descriptively analyzed according to various trial groups, including: arithmetic mean, standard deviation, minimum value, median, maximum value, geometric mean, coefficient of variation, geometric coefficient of variation, etc. In addition, the accumulation index AUC0-tau, ss(D15)/AUC0-tau (D1) was calculated. […]

With `Cc1ncc([N+](=O)[O-])n1CCO` [metronidazole], in the data set on Helicobacter pylori, the “Resistance rate of Helicobacter pylori” value was 40-70%.

Turning to `COCCCOc1ccnc(C[S+]([O-])c2nc3ccccc3[n-]2)c1C.[Na+]` (centres unmarked) [rabeprazole, rabeprazole sodium, reference compound], the “Effect of amoxicillin on the major pharmacokinetic parameters of rabeprazole” value in data set [1] is given as “no significant effect”.
